Results published in ChEMBL document CHEMBL1781915, “Potential virtual lead identification in the discovery of renin inhibitors: application of ligand and structure-based pharmacophore modeling approaches” (Eur J Med Chem, 2011).

Each compound was assayed against T1, Renin (Homo sapiens, UniProt P00797).
T1 sequence (P00797 whole entry): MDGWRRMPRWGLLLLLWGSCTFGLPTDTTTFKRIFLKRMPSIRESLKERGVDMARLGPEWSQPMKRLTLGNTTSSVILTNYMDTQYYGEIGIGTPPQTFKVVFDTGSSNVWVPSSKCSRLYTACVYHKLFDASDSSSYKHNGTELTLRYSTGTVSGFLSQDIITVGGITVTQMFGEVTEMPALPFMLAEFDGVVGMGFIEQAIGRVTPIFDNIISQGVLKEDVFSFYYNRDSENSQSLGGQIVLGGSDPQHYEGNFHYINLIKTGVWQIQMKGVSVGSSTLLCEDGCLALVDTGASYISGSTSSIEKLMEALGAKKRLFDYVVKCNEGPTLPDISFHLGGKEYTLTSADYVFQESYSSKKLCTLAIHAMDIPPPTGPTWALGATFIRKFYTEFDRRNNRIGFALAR

Question: For Cc1cc(Cl)c(OCCOc2ccc(C3=C(C(=O)N(Cc4cccc(C)c4C)C4CC4)C4CNCC(C3)N4)cc2)c(Cl)c1 (stereo unspecified), which IC50 is on record?
Answer: Its IC50 is 160 pM.

Question: CCCCNC(=O)C(CC(=O)C(CC1CCCCC1)NC(=O)C(Cc1cnc[nH]1)NC(=O)C(Cc1ccccc1)CS(=O)(=O)C(C)(C)C)C(C)C (stereo unspecified) was tested. Which IC50 did it give?
Answer: The IC50 was 700 pM.

Question: Which IC50 does the source give for CCCCNC(=O)C(C)CC(O)C(N)CC(C)(C)CC(=O)N1CC(C(=O)OC)Cc2ccccc21 (stereo unspecified) here?
Answer: The IC50 was 800 pM.

Question: CCCCNC(=O)C(C)CC(O)C(N)CC(CNC(=O)c1cccc(OCCCOC)c1)C(C)C (stereo unspecified) was tested. Which IC50 did it give?
Answer: The IC50 was 900 pM.

Question: How did the IC50 turn out when CC(C)(C)S(=O)(=O)CC(Cc1ccccc1)C(=O)NC(Cc1cnc[nH]1)C(=O)NC(CC1CCCCC1)C(O)C(O)C1CC1 (stereo unspecified) was run?
Answer: Its IC50 is 1000 pM.

Question: COc1ccccc1COCCCOc1ccc(N2C(=O)CNCC2COC2=CC3C(=CC=CN3CCCO)C=C2)cc1 (stereo unspecified) was tested. Which IC50 did it give?
Answer: Its IC50 is 37000 pM.
